What is called IC50 is the concentration that gives 50% inhibition. As usually defined, the EC50 is the concentration needed to bring the measured effect to its halfway point.

*1 amine or outer side, *2 acyl side, *3 side chain or, on linkers, in order; H or OH if unused. Where a SMILES comes first, the peptide text is derived from it. [ ]: non-standard residue; d: D form. ξ: configuration not given here. MeBmt = C/C=C/C[C@@H](C)[C@@H](O)[C@H](NC)C(=O)O; X2 = C=CCOC(C)(C)C[C@@H](C(=O)[*:2])N(C)[*:1]; X1 = CCN(CC)CC[C@H](C(=O)[*:2])N(C)[*:1]; X3 = CN(C)CCC[C@H](C(=O)[*:2])N(C)[*:1]; NMeIle(3ξ) = CCC(C)[C@H](NC)C(=O)O; NMeL = CN[C@@H](CC(C)C)C(=O)O; NMeV = CN[C@H](C(=O)O)C(C)C; Abu = CC[C@H](N)C(=O)O

One test has as its system HCV replicon in cell line ET (luc-ubi-neo/ET), Huh7 human hepatoma cells. Description: HCV subgenomic replicon assay (luciferase end point). It counts as cell-based. Particulars: HCV replicon-derived luciferase activity, Huh7 ET cells; read-out: Antiviral activity: IC50. The procedure:
The anti-HCV activity of cyclosporine derivatives were evaluated in the HCV subgenomic replicon assay. The assay use the cell line ET (luc-ubi-neo/ET), which is a Huh7 human hepatoma cell line harboring an HCV replicon with a stable luciferase (Luc) reporter. HCV RNA replication was assessed by quantifying HCV replicon-derived luciferase activity. The antiviral activity of cyclosporine analogs were evaluated after drug treatment, the EC 50 and EC 90 were determined in subsequent assessments by using the luciferase end point (Krieger, N., et al., 2001, J. Virol. 75, 4614-4624; Pietschmann, T., et al., 2002, J. Virol. 76, 4008-4021; each of which is incorporated herein by reference).
A general note: A replicon is a self-replicating genome or part of one, used to study replication in cells.
As to `C/C=C/C[C@@H](C)[C@@H](O)[C@H]1C(=O)N[C@@H](CC)C(=O)N(C)C(CCCN(C)C)C(=O)N(C)[C@@H](CC(C)C)C(=O)N[C@@H](C(C)C)C(=O)N(C)[C@@H](CC(C)C)C(=O)N[C@@H](C)C(=O)N[C@H](C)C(=O)N(C)[C@@H](CC(C)C)C(=O)N(C)[C@@H](CC(C)C)C(=O)N(C)[C@@H](C(C)C)C(=O)N1C` (stereo partly drawn) [[(R,S)-3-(N,N-Dimethylamino)propyl-Sar]-3-cyclosporin], the IC50 is < 1.5 µM.

For “[(R)-2-(N,N-Dimethylamino)ethyl-Sar]-3-[NMeLeu]-4-cyclosporin”, the IC50 is < 0.25 µM.

With “[(R,S)-2-(N,N-Dimethylamino)ethyl-Sar]-3-cyclosporin”, the IC50 was < 1.5 µM.

“[(S)-2-(N,N-Diethylamino)ethyl-Sar]-3-cyclosporin”: the IC50 was < 5 µM.

The same test, now with this note: Hepatitis C virus, Huh-7, read-out: Antiviral activity: IC50 (μM).
As to `C=CCOC(C)(C)C[C@H]1C(=O)N[C@@H](C(C)C)C(=O)N(C)[C@@H](CC(C)C)C(=O)N[C@@H](C)C(=O)N[C@H](C)C(=O)N(C)[C@@H](CC(C)C)C(=O)N(C)[C@@H](CC(C)C)C(=O)N(C)[C@@H](C(C)C)C(=O)N(C)[C@@H]([C@H](O)[C@H](C)C/C=C/C)C(=O)N[C@@H](CC)C(=O)N(C)[C@H](CCN(CC)CC)C(=O)N1C` [Example 28, [(R)-2-(N,N-Diethylamino)ethyl-Sar]-3-[(γ-allyloxy)-NMeLeu]-4-cyclosporin] (cyclo(A[dA][NMeL][NMeL][NMeV][MeBmt][Abu][X1][X2]V[NMeL])), the IC50 is < 0.25 µM.

On to `C/C=C/C[C@@H](C)[C@@H](O)[C@H]1C(=O)N[C@@H](CC)C(=O)N(C)[C@H](CCN(CC)CC)C(=O)N(C)[C@@H](C(C)C)C(=O)N[C@@H](C(C)C)C(=O)N(C)[C@@H](CC(C)C)C(=O)N[C@@H](C)C(=O)N[C@H](C)C(=O)N(C)[C@@H](CC(C)C)C(=O)N(C)[C@@H](CC(C)C)C(=O)N(C)[C@@H](C(C)C)C(=O)N1C` [Example 29, [(R)-2-(N,N-Diethylamino)ethyl-Sar]-3-[NMeVal]-4-cyclosporin] (cyclo(A[dA][NMeL][NMeL][NMeV][MeBmt][Abu][X1][NMeV]V[NMeL])), for which the IC50 was < 0.25 µM.

Consider `C/C=C/C[C@@H](C)[C@@H](O)[C@H]1C(=O)N[C@@H](CC)C(=O)N(C)[C@H](CCN(CC)CC)C(=O)N(C)[C@@H](C(C)CC)C(=O)N[C@@H](C(C)C)C(=O)N(C)[C@@H](CC(C)C)C(=O)N[C@@H](C)C(=O)N[C@H](C)C(=O)N(C)[C@@H](CC(C)C)C(=O)N(C)[C@@H](CC(C)C)C(=O)N(C)[C@@H](C(C)C)C(=O)N1C` (stereo partly drawn) [Example 30, [(R)-2-(N,N-Diethylamino)ethyl-Sar]-3-[NMeIle]-4-cyclosporin] (cyclo(A[dA][NMeL][NMeL][NMeV][MeBmt][Abu][X1][NMeIle(3ξ)]V[NMeL])), for which the IC50 was < 0.25 µM.

Turning to `C/C=C/C[C@@H](C)[C@@H](O)[C@H]1C(=O)N[C@@H](CC)C(=O)N(C)[C@@H](CCN(C)C)C(=O)N(C)[C@@H](CC(C)(C)O)C(=O)N[C@@H](C(C)C)C(=O)N(C)[C@@H](CC(C)C)C(=O)N[C@@H](C)C(=O)N[C@H](C)C(=O)N(C)[C@@H](CC(C)C)C(=O)N(C)[C@@H](CC(C)C)C(=O)N(C)[C@@H](C(C)C)C(=O)N1C` [Example 32, [(S)-2-(N,N-Dimethylamino)ethyl-Sar]-3-[(γ-hydroxy)-NMeLeu]-4-cyclosporin], the IC50 is < 5 µM.

Take `C/C=C/C[C@@H](C)[C@@H](O)[C@H]1C(=O)N[C@@H](CC)C(=O)N(C)[C@@H](CCN(CC)CC)C(=O)N(C)[C@@H](CC(C)(C)O)C(=O)N[C@@H](C(C)C)C(=O)N(C)[C@@H](CC(C)C)C(=O)N[C@@H](C)C(=O)N[C@H](C)C(=O)N(C)[C@@H](CC(C)C)C(=O)N(C)[C@@H](CC(C)C)C(=O)N(C)[C@@H](C(C)C)C(=O)N1C` [Example 33, [(S)-2-(N,N-Diethylamino)ethyl-Sar]-3-[(γ-hydroxy)-NMeLeu]-4-Cyclosporin]: the IC50 is < 5 µM.

For the compound `C/C=C/C[C@@H](C)[C@@H](O)[C@H]1C(=O)N[C@@H](CC)C(=O)N(C)[C@H](CCCN(C)C)C(=O)N(C)[C@@H](CC(C)(C)O)C(=O)N[C@@H](C(C)C)C(=O)N(C)[C@@H](CC(C)C)C(=O)N[C@@H](C)C(=O)N[C@H](C)C(=O)N(C)[C@@H](CC(C)C)C(=O)N(C)[C@@H](CC(C)C)C(=O)N(C)[C@@H](C(C)C)C(=O)N1C` [Example 37, [(R)-3-(N,N-Dimethylamino)propyl-Sar]-3-[(γ-hydroxy)-NMeLeu]-4-cyclosporin], the IC50 is < 0.25 µM.

`C/C=C/C[C@@H](C)[C@@H](O)[C@H]1C(=O)N[C@@H](CC)C(=O)N(C)[C@H](CCCN(C)C)C(=O)N(C)[C@@H](CC(C)(C)OC)C(=O)N[C@@H](C(C)C)C(=O)N(C)[C@@H](CC(C)C)C(=O)N[C@@H](C)C(=O)N[C@H](C)C(=O)N(C)[C@@H](CC(C)C)C(=O)N(C)[C@@H](CC(C)C)C(=O)N(C)[C@@H](C(C)C)C(=O)N1C` [Example 39, [(R)-3-(N,N-Dimethylamino)propyl-Sar]-3-[(γ-methoxy)-NMeLeu]-4-cyclosporin]: the IC50 was < 0.25 µM.

Take `C=CCOC(C)(C)C[C@H]1C(=O)N[C@@H](C(C)C)C(=O)N(C)[C@@H](CC(C)C)C(=O)N[C@@H](C)C(=O)N[C@H](C)C(=O)N(C)[C@@H](CC(C)C)C(=O)N(C)[C@@H](CC(C)C)C(=O)N(C)[C@@H](C(C)C)C(=O)N(C)[C@@H]([C@H](O)[C@H](C)C/C=C/C)C(=O)N[C@@H](CC)C(=O)N(C)[C@H](CCCN(C)C)C(=O)N1C` [Example 41, [(R)-3-(N,N-Dimethylamino)propyl-Sar]-3-[(γ-allyloxy)-NMeLeu]-4-cyclosporin] (cyclo(A[dA][NMeL][NMeL][NMeV][MeBmt][Abu][X3][X2]V[NMeL])): the IC50 is < 0.25 µM.

For `C/C=C/C[C@@H](C)[C@@H](O)[C@H]1C(=O)N[C@@H](CC)C(=O)N(C)[C@H](CCCN(C)C)C(=O)N(C)[C@@H](C(C)C)C(=O)N[C@@H](C(C)C)C(=O)N(C)[C@@H](CC(C)C)C(=O)N[C@@H](C)C(=O)N[C@H](C)C(=O)N(C)[C@@H](CC(C)C)C(=O)N(C)[C@@H](CC(C)C)C(=O)N(C)[C@@H](C(C)C)C(=O)N1C` [Example 43, [(R)-3-(N,N-Dimethylamino)propyl-Sar]-3-[NMeVal]-4-cyclosporin] (cyclo(A[dA][NMeL][NMeL][NMeV][MeBmt][Abu][X3][NMeV]V[NMeL])), the IC50 was < 0.25 µM.

Regarding `C/C=C/C[C@@H](C)[C@@H](O)[C@H]1C(=O)N[C@@H](CC)C(=O)N(C)[C@H](CCCN(C)C)C(=O)N(C)[C@@H](C(C)CC)C(=O)N[C@@H](C(C)C)C(=O)N(C)[C@@H](CC(C)C)C(=O)N[C@@H](C)C(=O)N[C@H](C)C(=O)N(C)[C@@H](CC(C)C)C(=O)N(C)[C@@H](CC(C)C)C(=O)N(C)[C@@H](C(C)C)C(=O)N1C` (stereo partly drawn) [Example 45, [(R)-3-(N,N-Dimethylamino)propyl-Sar]-3-[NMeIle]-4-cyclosporin] (cyclo(A[dA][NMeL][NMeL][NMeV][MeBmt][Abu][X3][NMeIle(3ξ)]V[NMeL])), the IC50 is < 0.25 µM.

The subject of the next test is HCV.
Experiment: not given
The following applies: reported in Hopkins, S. et al., 2010; read-out: in vitro anti-HCV activity (EC50); cited from earlier work.
For `C/C=C/C[C@@H](C)[C@@H](O)[C@H]1C(=O)N[C@@H](CC)C(=O)N(C)[C@H](SCCN(C)C)C(=O)N(C)[C@@H](CC(C)(C)O)C(=O)N[C@@H](C(C)C)C(=O)N(C)[C@@H](CC(C)C)C(=O)N[C@@H](C)C(=O)N[C@H](C)C(=O)N(C)[C@@H](CC(C)C)C(=O)N(C)[C@@H](CC(C)C)C(=O)N(C)[C@@H](C(C)C)C(=O)N1C` [SCY-635], the EC50 was 100 nM.
